Measured values: patent publication US4401660A, “Ester derivatives of 5-O-mycaminosyl tylonolide and method of using same” (Eli Lilly and Company, priority 1981, dated 1983)

How the values were obtained:
Assay type in all cases: cell-based
Parameters in all cases: unit not given here
[1] = tested on: Streptococcus sp. 80; test: MIC, broth-dilution microtiter test (Table III)
Description: (§1) The MIC's in Table II were determined by standard agar-dilution assays. The MIC's in Table III were obtained using a conventional broth-dilution microtiter test.

[2] = tested on: Pasteurella multocida 60A; test: MIC, broth-dilution microtiter test (Table III); details: avian isolate
Description: as §1

[3] = tested on: Pasteurella multocida 17E; test: MIC, broth-dilution microtiter test (Table III); details: bovine isolate
Description: as §1

[4] = tested on: Pasteurella haemolytica 22C; test: MIC, broth-dilution microtiter test (Table III)
Description: as §1

[5] = tested on: Staphylococcus aureus; test: MIC, broth-dilution microtiter test (Table III)
Description: as §1

[6] = tested on: Mycoplasma synoviae; test: MIC, broth-dilution microtiter test (Table III)
Description: as §1

[7] = tested on: Pasteurella multocida 22A; test: MIC, broth-dilution microtiter test (Table III)
Description: as §1

[8] = tested on: Mycoplasma hyorhinis; test: MIC, broth-dilution microtiter test (Table III)
Description: as §1

[9] = tested on: Mycoplasma gallisepticum; test: MIC, broth-dilution microtiter test (Table III)
Description: as §1

[10] = tested on: Pasteurella multocida 68C; test: MIC, broth-dilution microtiter test (Table III)
Description: as §1

[11] = tested on: Pasteurella multocida 40G; test: MIC, broth-dilution microtiter test (Table III)
Description: as §1

[12] = tested on: Pasteurella haemolytica 41D; test: MIC, broth-dilution microtiter test (Table III)
Description: as §1

[13] = tested on: Pasteurella haemolytica 23C; test: MIC, broth-dilution microtiter test (Table III)
Description: as §1

[14] = tested on: Streptococcus pyogenes C203; test: MIC, standard agar-dilution assay (Table II)
Description: as §1

[15] = tested on: Haemophilus influenzae Holt; test: MIC, standard agar-dilution assay (Table II); details: ampicillin-sensitive strain
Description: as §1

[16] = tested on: Staphylococcus aureus V41; test: MIC, standard agar-dilution assay (Table II); details: Staphylococcus aureus V41, penicillin-resistant strain
Description: as §1

[17] = tested on: Streptococcus Group D 9960; test: MIC, standard agar-dilution assay (Table II)
Description: as §1

[18] = tested on: Staphylococcus epidermidis EPI2; test: MIC, standard agar-dilution assay (Table II)
Description: as §1

[19] = tested on: Staphylococcus aureus S13E; test: MIC, standard agar-dilution assay (Table II)
Description: as §1

[20] = tested on: Staphylococcus aureus X400; test: MIC, standard agar-dilution assay (Table II); details: Staphylococcus aureus X400, methicillin-resistant strain
Description: as §1

[21] = tested on: Staphylococcus aureus X1.1; test: MIC, standard agar-dilution assay (Table II)
Description: as §1

[22] = tested on: Staphylococcus epidermidis EPI1; test: MIC, standard agar-dilution assay (Table II)
Description: as §1

[23] = tested on: Haemophilus influenzae R252; test: MIC, standard agar-dilution assay (Table II); details: Haemophilus influenzae R252, ampicillin-resistant strain
Description: as §1

[24] = tested on: Streptococcus pneumoniae Park I; test: MIC, standard agar-dilution assay (Table II)
Description: as §1

[25] = tested on: Streptococcus Group D X66; test: MIC, standard agar-dilution assay (Table II)
Description: as §1

| SMILES | minimal inhibitory concentration (MIC) [1] | minimal inhibitory concentration (MIC) [2] | minimal inhibitory concentration (MIC) [3] | minimal inhibitory concentration (MIC) [4] | minimal inhibitory concentration (MIC) [5] | minimal inhibitory concentration (MIC) [6] | minimal inhibitory concentration (MIC) [7] | minimal inhibitory concentration (MIC) [8] | minimal inhibitory concentration (MIC) [9] | minimal inhibitory concentration (MIC) [10] | minimal inhibitory concentration (MIC) [11] | minimal inhibitory concentration (MIC) [12] | minimal inhibitory concentration (MIC) [13] | minimal inhibitory concentration (MIC) [14] | minimal inhibitory concentration (MIC) [15] | minimal inhibitory concentration (MIC) [16] | minimal inhibitory concentration (MIC) [17] | minimal inhibitory concentration (MIC) [18] | minimal inhibitory concentration (MIC) [19] | minimal inhibitory concentration (MIC) [20] | other results |
| --- | --- | --- | --- | --- | --- | --- | --- | --- | --- | --- | --- | --- | --- | --- | --- | --- | --- | --- | --- | --- | --- |
| CCC1OC(=O)CC(O)C(C)C(OC2OC(C)C(O)C(N(C)C)C2OC(C)=O)C(CC=O)CC(C)C(=O)C=CC(C)=CC1COC(=O)Cc1ccc([N+](=O)[O-])cc1 (stereo not drawn) [Compound 64] | < 0.05 | 1.56 | 1.56 | 3.12 | 0.78 | < 0.05 | 1.56 | 0.78 | 0.097 | 1.56 | 1.56 | 3.12 | 3.12 | 0.06 | 1 | 0.125 | 0.125 | 0.25 | 0.125 | 0.125 | minimal inhibitory concentration (MIC) [21]: 0.125; minimal inhibitory concentration (MIC) [22]: 0.125; minimal inhibitory concentration (MIC) [23]: 1; minimal inhibitory concentration (MIC) [24]: 0.015; minimal inhibitory concentration (MIC) [25]: 0.125 |
| CCC1OC(=O)CC(O)C(C)C(OC2OC(C)C(O)C(N(C)C)C2OC(C)=O)C(CC=O)CC(C)C(=O)C=CC(C)=CC1COC(=O)Cc1cc(OC)ccc1OC (stereo not drawn) [Compound 62] | 0.195 | 12.5 | 3.12 | 6.25 | 0.78 | < 0.05 | 3.12 | 0.78 | < 0.05 | 6.25 | 3.12 | 3.12 | 6.25 | 0.06 | 1 | 0.25 | 0.125 | 0.25 | 0.125 | 0.25 | minimal inhibitory concentration (MIC) [21]: 0.25; minimal inhibitory concentration (MIC) [22]: 0.125; minimal inhibitory concentration (MIC) [23]: 2; minimal inhibitory concentration (MIC) [24]: 0.03; minimal inhibitory concentration (MIC) [25]: 0.125 |
| CCC1OC(=O)CC(O)C(C)C(OC2OC(C)C(O)C(N(C)C)C2OC(C)=O)C(CC=O)CC(C)C(=O)C=CC(C)=CC1COC(=O)c1ccc2ccccc2c1 (stereo not drawn) [Compound 58] | 0.78 | 3.12 | 3.12 | 12.5 | 1.56 | 0.78 | 6.25 | 6.25 | < 0.05 | 1.56 | 3.12 | 6.25 | 6.25 | 0.125 | 2 | 0.5 | 0.5 | 0.5 | 0.25 | 0.5 | minimal inhibitory concentration (MIC) [21]: 0.25; minimal inhibitory concentration (MIC) [22]: 0.25; minimal inhibitory concentration (MIC) [23]: 1; minimal inhibitory concentration (MIC) [24]: 0.03; minimal inhibitory concentration (MIC) [25]: 0.25 |
| CCC1OC(=O)CC(O)C(C)C(OC2OC(C)C(O)C(N(C)C)C2OC(=O)Cc2ccccc2)C(CC=O)CC(C)C(=O)C=CC(C)=CC1COC(=O)Cc1ccccc1 (stereo not drawn) [Compound 53, 2',23-Di-O-Phenylacetyl-OMT] | < 0.05 | 1.56 | 1.56 | 3.12 | 0.195 | < 0.05 | 1.56 | 3.12 | < 0.05 | 0.78 | 1.56 | 3.12 | 3.12 | 0.06 | 1 | 0.25 | 0.25 | 0.25 | 0.25 | 0.25 | minimal inhibitory concentration (MIC) [21]: 0.25; minimal inhibitory concentration (MIC) [22]: 0.25; minimal inhibitory concentration (MIC) [23]: 1; minimal inhibitory concentration (MIC) [24]: 0.03; minimal inhibitory concentration (MIC) [25]: 0.25 |
| CCC1OC(=O)CC(O)C(C)C(OC2OC(C)C(O)C(N(C)C)C2O)C(CC=O)CC(C)C(=O)C=CC(C)=CC1COC(=O)C12CC3CC(CC(C3)C1)C2 (stereo not drawn) [Compound 70] | 1.56 | 25 | 12.5 | 25 | 6.25 | 0.39 | 12.5 | 3.12 | 1.56 | 12.5 | 12.5 | 25 | 25 | 1 | 8 | 1 | 2 | 1 | 1 | 1 | minimal inhibitory concentration (MIC) [21]: 1; minimal inhibitory concentration (MIC) [22]: 1; minimal inhibitory concentration (MIC) [23]: 16; minimal inhibitory concentration (MIC) [24]: 0.5; minimal inhibitory concentration (MIC) [25]: 2 |
| CCC(=O)OC1C(OC2C(CC=O)CC(C)C(=O)C=CC(C)=CC(CO)C(CC)OC(=O)CC(O)C2C)OC(C)C(O)C1N(C)C (stereo not drawn) [Compound 2, 2'-O-Propionyl-OMT] | < 0.78 | 1.56 | 3.12 | 12.5 | 3.12 | 0.78 | 3.12 | 3.12 | 0.39 | 3.12 | 6.25 | 12.5 | 12.5 | 0.5 | 4 | 4 | 2 | 1 | 2 | 4 | minimal inhibitory concentration (MIC) [21]: 2; minimal inhibitory concentration (MIC) [22]: 1; minimal inhibitory concentration (MIC) [23]: 4; minimal inhibitory concentration (MIC) [24]: 8; minimal inhibitory concentration (MIC) [25]: 2 |
